Measured values taken from ChEMBL document CHEMBL1201862, “PubChem BioAssay data set” (2004).
Active and inactive are the calls of the source.

Experiments:
[1] = Counterscreen for activators of the function of SWI/SNF related, matrix associated, actin dependent regulator of chromatin, subfamily a, member 2 (SMARCA2, BRM): Luminescence-based cell-based high throughput dose response assay to identify non-selective compounds using the VP16 reporter assay.; assay type: functional
[2] = viability of PTEN-deleted HCT116 cells – cell-based, HCT116 PTEN knockout, dose response (AID 1047); assay type: functional;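 also: HCT116 colon tumor cells with PTEN knocked out; cells exposed to compound for 60 hours before readout; potency for loss of cell viability measured by luminescence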
[3] = target: SWI/SNF-related matrix-associated actin-dependent regulator of chromatin subfamily A member 2 (Homo sapiens, UniProt P51531); assay: Luminescence-based cell-based high throughput dose response assay to identify activators of the function of SWI/SNF related, matrix associated, actin dependent regulator of chromatin, subfamily a, member 2 (SMARCA2, BRM).; assay type: functional
Sequence of SWI/SNF-related matrix-associated actin-dependent regulator of chromatin subfamily A member 2 (P51531 whole entry, the tested form may be a part): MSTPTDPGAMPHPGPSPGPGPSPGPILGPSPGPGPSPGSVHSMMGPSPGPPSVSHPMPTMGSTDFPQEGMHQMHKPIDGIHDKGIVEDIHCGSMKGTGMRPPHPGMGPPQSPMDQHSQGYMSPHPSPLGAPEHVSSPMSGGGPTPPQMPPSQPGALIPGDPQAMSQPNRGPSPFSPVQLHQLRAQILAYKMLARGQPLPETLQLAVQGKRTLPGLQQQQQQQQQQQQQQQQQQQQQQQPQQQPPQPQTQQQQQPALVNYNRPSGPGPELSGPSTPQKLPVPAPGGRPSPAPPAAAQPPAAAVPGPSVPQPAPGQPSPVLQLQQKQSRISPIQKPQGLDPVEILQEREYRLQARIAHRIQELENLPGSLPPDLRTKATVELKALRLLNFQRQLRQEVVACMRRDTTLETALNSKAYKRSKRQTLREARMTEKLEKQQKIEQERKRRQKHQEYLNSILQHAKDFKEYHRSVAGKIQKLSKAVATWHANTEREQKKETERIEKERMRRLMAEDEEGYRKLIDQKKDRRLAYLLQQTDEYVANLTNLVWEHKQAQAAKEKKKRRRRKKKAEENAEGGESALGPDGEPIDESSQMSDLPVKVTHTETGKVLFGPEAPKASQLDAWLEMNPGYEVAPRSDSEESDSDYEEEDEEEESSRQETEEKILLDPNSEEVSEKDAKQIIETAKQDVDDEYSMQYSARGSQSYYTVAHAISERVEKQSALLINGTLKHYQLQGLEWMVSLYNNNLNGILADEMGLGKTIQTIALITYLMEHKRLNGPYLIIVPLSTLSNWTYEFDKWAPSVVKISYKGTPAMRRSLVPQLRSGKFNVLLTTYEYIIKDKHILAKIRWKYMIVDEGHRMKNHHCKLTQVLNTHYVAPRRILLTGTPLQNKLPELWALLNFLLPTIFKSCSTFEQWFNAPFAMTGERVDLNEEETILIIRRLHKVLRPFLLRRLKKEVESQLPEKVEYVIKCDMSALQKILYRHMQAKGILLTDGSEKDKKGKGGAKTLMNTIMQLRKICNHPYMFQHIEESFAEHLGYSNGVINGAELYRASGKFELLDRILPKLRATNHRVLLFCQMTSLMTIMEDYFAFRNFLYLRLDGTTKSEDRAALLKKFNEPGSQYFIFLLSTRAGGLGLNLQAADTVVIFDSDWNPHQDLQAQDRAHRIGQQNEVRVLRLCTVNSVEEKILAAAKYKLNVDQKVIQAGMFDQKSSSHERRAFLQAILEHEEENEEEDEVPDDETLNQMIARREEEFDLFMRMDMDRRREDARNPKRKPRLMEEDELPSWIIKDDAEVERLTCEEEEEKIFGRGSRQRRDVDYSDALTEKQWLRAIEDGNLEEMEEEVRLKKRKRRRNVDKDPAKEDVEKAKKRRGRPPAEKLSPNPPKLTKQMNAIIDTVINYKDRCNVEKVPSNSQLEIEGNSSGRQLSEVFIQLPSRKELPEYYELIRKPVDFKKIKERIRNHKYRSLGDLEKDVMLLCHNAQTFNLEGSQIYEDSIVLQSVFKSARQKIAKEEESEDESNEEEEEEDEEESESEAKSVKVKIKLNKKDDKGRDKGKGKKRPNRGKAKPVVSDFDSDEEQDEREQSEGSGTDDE

[4] = target: Photoreceptor-specific nuclear receptor (Homo sapiens, UniProt Q9Y5X4); assay type: functional, cell-based;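 also: CHO-S cells with Gal4-NCOR and VP16-NR2E3 two-hybrid luciferase reporter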
Sequence of Photoreceptor-specific nuclear receptor (Q9Y5X4 whole entry, the tested form may be a part): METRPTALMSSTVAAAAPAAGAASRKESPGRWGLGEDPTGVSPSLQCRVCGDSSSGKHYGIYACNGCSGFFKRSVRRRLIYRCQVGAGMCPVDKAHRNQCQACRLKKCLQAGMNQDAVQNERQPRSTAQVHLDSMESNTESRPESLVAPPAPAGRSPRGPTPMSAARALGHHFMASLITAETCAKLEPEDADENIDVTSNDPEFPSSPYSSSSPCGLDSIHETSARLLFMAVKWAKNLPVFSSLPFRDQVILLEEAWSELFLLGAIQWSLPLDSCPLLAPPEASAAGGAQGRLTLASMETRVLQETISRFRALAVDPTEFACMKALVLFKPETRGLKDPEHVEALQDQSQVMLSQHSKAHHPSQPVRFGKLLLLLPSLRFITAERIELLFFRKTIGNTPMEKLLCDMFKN

[5] = viability of HCT116 lacking mutant beta-catenin – cell-based, human colon tumor, dose response (AID 1045); assay type: functional;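 also: HCT116 colon tumor cells with beta catenin knocked out; cells exposed to compound for 60 hours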
[6] = HEK-293T viability loss after treatment – luminescence, T-cell screen hits, cytotoxicity control for TCR NF-kB inhibitor project, dose response (AID 489026); assay type: functional, cell-based;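 also: cells exposed to compound about 14 hours before the viability readout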
[7] = viability loss in HEK293T cells – cell-based, cherry-picks, cytotoxicity control for HIV Vif inhibitor project, dose response (AID 652208); assay type: functional
[8] = target: T1, Heat shock factor protein 1 (Mus musculus, UniProt P38532); assay: enhancement of HSF1-driven luciferase signal – cell-based, NIH3T3, luminescence, dose retest, confirmation (AID 435004); assay type: functional;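 also: stress induced by proteasome inhibitor MG132 added 30 min after compound; luciferase reporter driven by HSF1 response element in NIH3T3 cells; actives raise luminescence as potentiators of the MG132 stress response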
T1 sequence (P38532 whole entry): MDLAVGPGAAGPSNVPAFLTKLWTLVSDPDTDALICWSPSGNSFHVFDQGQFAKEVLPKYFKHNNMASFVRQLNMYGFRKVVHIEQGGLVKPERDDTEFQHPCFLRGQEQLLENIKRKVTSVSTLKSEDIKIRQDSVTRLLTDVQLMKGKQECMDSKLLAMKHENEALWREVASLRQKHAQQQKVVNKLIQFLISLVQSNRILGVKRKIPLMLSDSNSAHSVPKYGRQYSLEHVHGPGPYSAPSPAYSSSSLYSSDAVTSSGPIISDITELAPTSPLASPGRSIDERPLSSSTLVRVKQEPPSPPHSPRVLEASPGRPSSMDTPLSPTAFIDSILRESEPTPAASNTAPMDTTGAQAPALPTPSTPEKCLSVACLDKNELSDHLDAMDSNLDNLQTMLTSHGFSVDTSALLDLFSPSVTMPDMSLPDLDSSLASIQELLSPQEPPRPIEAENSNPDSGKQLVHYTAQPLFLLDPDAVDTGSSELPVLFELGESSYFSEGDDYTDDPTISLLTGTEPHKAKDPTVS

fMet-Leu-Phe receptor = fMet-Leu-Phe receptor (Homo sapiens, UniProt P21462); assay: formyl peptide receptor binders – dose response (AID 519); assay type: functional
Sequence of fMet-Leu-Phe receptor (P21462 whole entry): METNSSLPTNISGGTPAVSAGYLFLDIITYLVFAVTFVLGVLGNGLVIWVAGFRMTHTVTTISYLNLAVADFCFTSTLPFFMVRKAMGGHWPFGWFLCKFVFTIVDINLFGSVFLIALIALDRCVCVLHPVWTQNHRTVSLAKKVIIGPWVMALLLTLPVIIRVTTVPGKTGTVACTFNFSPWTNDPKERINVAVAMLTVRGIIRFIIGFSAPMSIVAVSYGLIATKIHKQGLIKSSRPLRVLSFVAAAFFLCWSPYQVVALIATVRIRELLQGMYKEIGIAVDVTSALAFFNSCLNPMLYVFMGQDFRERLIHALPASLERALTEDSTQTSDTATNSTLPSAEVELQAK

[9] = optical artefact potency, substrate without enzyme – biochemical, fluorescence intensity, triplicate, artefact control for kallikrein-7 zymogen activator project, dose response (AID 720493)
Kallikrein-7 = Kallikrein-7 (Homo sapiens, UniProt P49862); assay: Fluorescence Intensity-based biochemical primary high throughput dose response assay to identify activators of kallikrein-7 (K7) zymogen.
Sequence of Kallikrein-7 (P49862 whole entry): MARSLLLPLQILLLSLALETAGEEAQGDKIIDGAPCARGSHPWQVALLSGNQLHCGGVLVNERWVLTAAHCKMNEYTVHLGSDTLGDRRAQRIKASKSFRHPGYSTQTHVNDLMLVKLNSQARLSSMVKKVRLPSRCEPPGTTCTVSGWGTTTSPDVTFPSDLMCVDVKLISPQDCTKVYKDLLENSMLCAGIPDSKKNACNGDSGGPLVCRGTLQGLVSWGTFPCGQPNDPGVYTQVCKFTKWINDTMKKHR

[10] = target: NAD-dependent protein deacylase sirtuin-5, mitochondrial (Homo sapiens, UniProt Q9NXA8); assay: sirtuin-5 deacylation blockers, concentration series – biochemical, fluorescence imaging, cherry-pick, set 5, dose response (AID 720591);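 also: desuccinylation of succinyl peptide AMC substrate read as fluorescence after trypsin release; potency of inhibitors that lower fluorescence and may act on trypsin instead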
Sequence of NAD-dependent protein deacylase sirtuin-5, mitochondrial (Q9NXA8 whole entry): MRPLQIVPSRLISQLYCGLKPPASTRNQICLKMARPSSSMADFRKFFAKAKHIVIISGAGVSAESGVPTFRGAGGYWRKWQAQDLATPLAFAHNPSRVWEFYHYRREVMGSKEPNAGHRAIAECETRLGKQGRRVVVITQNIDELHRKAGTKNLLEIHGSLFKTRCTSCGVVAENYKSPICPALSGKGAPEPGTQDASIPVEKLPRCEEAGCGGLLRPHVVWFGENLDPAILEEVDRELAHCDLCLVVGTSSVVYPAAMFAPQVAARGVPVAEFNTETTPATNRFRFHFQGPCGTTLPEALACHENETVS

Cytochrome P450 3A4 = Cytochrome P450 3A4 (Homo sapiens, UniProt P08684);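 also: CYP3A4 tested as one member of a cytochrome P450 panel screen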
Sequence of Cytochrome P450 3A4 (P08684 whole entry): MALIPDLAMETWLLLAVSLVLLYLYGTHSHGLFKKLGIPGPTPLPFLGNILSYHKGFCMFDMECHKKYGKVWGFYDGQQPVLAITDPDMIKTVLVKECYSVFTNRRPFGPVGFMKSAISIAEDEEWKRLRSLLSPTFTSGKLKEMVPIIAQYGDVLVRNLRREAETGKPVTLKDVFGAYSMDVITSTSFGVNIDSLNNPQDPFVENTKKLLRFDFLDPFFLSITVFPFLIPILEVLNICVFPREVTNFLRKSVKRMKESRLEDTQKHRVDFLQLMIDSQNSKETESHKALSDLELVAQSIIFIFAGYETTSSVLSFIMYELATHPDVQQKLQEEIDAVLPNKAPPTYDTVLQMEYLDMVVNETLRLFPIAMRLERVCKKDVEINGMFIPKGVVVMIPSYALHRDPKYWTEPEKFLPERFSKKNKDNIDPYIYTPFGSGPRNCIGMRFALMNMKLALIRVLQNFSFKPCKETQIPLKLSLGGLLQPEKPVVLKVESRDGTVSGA

[11] = target: T2, Short transient receptor potential channel 4 (Mus musculus, UniProt Q9QUQ5); assay: calcium entry via TRPC4 opening agents – cell-based, HEK293 TRPC4/mu-opioid, Fluo-4 calcium, dose response (AID 434937); assay type: functional
T2 sequence (Q9QUQ5 whole entry): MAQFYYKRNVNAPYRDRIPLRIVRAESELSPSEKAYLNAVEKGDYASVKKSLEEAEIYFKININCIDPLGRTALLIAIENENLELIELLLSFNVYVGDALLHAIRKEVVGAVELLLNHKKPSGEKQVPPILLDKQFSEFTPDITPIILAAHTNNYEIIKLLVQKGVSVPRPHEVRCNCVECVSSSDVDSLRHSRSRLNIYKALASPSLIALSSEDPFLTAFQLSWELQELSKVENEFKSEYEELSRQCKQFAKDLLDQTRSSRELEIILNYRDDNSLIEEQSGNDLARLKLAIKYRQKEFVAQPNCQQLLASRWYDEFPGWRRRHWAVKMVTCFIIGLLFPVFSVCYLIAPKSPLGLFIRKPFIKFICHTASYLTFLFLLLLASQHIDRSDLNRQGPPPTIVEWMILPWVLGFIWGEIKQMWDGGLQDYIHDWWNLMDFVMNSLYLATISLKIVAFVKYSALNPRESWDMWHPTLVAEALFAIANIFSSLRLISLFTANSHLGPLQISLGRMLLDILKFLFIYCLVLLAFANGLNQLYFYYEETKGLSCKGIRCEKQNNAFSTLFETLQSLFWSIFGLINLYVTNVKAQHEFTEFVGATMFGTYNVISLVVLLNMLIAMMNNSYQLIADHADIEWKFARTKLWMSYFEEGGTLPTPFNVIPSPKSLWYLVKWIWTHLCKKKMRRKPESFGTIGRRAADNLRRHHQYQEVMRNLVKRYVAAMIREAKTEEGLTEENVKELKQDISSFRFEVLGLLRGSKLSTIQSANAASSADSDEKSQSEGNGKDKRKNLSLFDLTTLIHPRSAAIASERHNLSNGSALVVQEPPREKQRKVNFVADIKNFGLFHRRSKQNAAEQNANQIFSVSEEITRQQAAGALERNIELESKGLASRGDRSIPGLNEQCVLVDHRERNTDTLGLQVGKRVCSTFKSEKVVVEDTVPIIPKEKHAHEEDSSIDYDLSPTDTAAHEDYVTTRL

[12] = target: T3, Trace amine-associated receptor 1 (Homo sapiens, UniProt Q96RJ0); assay: Fluorescence-based cell-based high throughput dose response assay to identify agonists of the human trace amine associated receptor 1 (TAAR1).; assay type: functional
T3 sequence (Q96RJ0 whole entry): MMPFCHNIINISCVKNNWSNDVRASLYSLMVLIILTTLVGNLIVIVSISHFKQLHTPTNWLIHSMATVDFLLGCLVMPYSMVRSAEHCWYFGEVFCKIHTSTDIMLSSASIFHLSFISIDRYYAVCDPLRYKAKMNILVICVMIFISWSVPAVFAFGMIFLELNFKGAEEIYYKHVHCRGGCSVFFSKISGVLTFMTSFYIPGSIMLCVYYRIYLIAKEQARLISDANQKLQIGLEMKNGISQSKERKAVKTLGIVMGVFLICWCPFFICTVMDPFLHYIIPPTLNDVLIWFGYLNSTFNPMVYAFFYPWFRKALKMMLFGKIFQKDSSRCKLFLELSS

[13] = target: T2, Short transient receptor potential channel 4; assay: block of DAMGO-driven TRPC4 calcium entry – cell-based, HEK293 TRPC4/mu-opioid, Fluo-4 calcium, dose response (AID 434942); assay type: functional;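 also: potency of inhibitors blocking the TRPC4 calcium response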
cells [14] = assay type: functional, cell-based
cells [15] = assay type: functional, cell-based; remark: listed apart in the source
[16] = target: T3, Trace amine-associated receptor 1; assay: Counterscreen for agonists of the human trace amine associated receptor 1 (hTAAR1): Fluorescence-based cell-based high throughput dose response assay to identify hTAAR1 agonist that also desensitize TAAR1 receptor response.; assay type: functional
[17] = inhibition of ADAM10 peptide cleavage – biochemical, FRET peptide substrate, recombinant human ADAM10, selectivity assay for ADAM17 exosite inhibitor project, dose response (AID 743259);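 also: ADAM10 enzyme cleaving a FRET peptide substrate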
[18] = target: Disintegrin and metalloproteinase domain-containing protein 17 (Homo sapiens, UniProt P78536); assay: exosite inhibitors of ADAM17, dose response, biochemical (AID 743260)
Sequence of Disintegrin and metalloproteinase domain-containing protein 17 (P78536 whole entry, the tested form may be a part): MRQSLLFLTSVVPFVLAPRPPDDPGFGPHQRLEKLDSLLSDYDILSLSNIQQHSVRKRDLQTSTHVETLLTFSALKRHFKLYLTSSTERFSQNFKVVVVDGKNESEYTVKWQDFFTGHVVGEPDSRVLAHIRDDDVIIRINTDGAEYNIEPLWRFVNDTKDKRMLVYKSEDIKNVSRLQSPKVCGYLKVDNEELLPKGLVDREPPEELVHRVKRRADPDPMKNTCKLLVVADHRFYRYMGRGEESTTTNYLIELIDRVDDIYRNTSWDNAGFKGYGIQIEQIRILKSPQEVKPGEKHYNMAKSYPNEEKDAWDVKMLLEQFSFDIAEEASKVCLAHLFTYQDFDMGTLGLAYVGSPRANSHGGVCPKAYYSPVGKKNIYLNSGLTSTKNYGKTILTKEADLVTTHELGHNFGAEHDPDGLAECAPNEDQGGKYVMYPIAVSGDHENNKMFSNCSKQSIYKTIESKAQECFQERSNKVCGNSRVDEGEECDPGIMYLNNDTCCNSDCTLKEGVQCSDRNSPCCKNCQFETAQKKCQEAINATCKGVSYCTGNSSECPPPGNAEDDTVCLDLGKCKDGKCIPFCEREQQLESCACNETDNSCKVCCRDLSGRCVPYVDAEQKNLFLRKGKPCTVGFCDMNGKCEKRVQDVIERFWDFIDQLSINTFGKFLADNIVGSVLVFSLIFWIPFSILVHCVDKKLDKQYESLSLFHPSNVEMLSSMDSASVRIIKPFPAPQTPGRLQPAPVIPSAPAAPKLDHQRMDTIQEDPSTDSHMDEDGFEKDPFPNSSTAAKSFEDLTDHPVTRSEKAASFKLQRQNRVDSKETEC

[19] = target: T3, Trace amine-associated receptor 1; assay: Fluorescence-based cell-based high throughput dose response assay to identify antagonists of the human trace amine associated receptor 1 (TAAR1).; assay type: functional
[20] = Counterscreen for antagonists of the human trace amine associated receptor 1 (hTAAR1): Fluorescence-based cell-based high throughput dose response assay to identify nonselective Ga16 antagonists.; assay type: functional
[21] = Counterscreen for […] of the human trace amine associated receptor 1 (TAAR1): Fluorescence-based cell-based high throughput dose response assay to identify nonselective Ga16 agonists.; assay type: functional
[22] = target: T3, Trace amine-associated receptor 1; assay: Counterscreen for antagonists of the human trace amine associated receptor 1 (hTAAR1): Fluorescence-based cell-based high throughput dose response assay to identify TAAR1 Agonists.; assay type: functional

## Cc1cc(NC(=O)CSc2nc3c(sc4ccccc43)c(=O)n2CCCN2CCOCC2)[nH]n1
[1]
  EC50: > 91.2 µM (inactive)
[2]
  EC50: 100 µM (active)
[3]
  EC50: > 91.2 µM (inactive)
[4]
  IC50: 0.783 µM (active)
[5]
  EC50: 285 µM (active)
[6]
  IC50: > 80 µM (inactive)
[7]
  AC50: > 52 µM (inactive)
[8]
  EC50: 37.9 µM (active)

## COC(=O)c1[nH]c(C)c(C(=O)C2=C(O)C(=O)N(CCN3CCOCC3)C2c2cccs2)c1C (stereo not given)
fMet-Leu-Phe receptor
  Ki: 5 µM (active)

## COc1ccc(-c2coc3c(CN4CCCCC4C)c(O)ccc3c2=O)cc1 (stereo not given)
[9]
  EC50: > 2.58 µM (active)
Kallikrein-7
  EC50: > 2.58 µM (active)

## CCc1ccc(N(C(=O)c2csnn2)C(C(=O)NCc2ccccc2)c2ccco2)cc1 (stereo not given)
[10]
  AC50: > 30 µM (inactive)
Cytochrome P450 3A4
  AC50: 1.41 µM (inconclusive)

## OC(CNC1CCCc2ccccc21)COc1c(Cl)cccc1Cl (stereo not given)
[11]
  EC50: 5.96 µM (active)
[12]
  EC50: 1.57 µM (active)
[13]
  EC50: 1.33 µM (active)
Cells [14]
  IC50: 13.9 µM (inactive)
Cells [15]
  EC50: 11.7 µM (inactive)
[16]
  IC50: 8.84 µM (active)

## Cc1cc(Nc2ccc(Cl)cc2)n(-c2cccc(Cl)c2)n1
[17]
  IC50: 21.3 µM (inactive)
[18]
  IC50: > 69.5 µM (inactive)

## Cc1ccc(CSCC(=O)Nc2cc(S(=O)(=O)N3CCOCC3)ccc2OCC(F)(F)F)cc1
[19]
  IC50: 1.25 µM (active)
[20]
  IC50: > 29.9 µM (inactive)
[21]
  EC50: > 29.9 µM (inactive)
[22]
  EC50: > 29.9 µM (inactive)
